Assays:
Assay type in all cases: in vivo
[1] = test system: lambsquarters (Chenopodium album); assay: Test B pre-/postemergence plant response
How it was run: (§1)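 Visual injury, 0–100 scale (100 = complete control), rated against controls after 13 to 15 days in greenhouse. Pre-emergence: seeds in loam/sand soil, treated at planting. Post-emergence: 1- to 4-leaf plants (2 to 18 cm) in peat/vermiculite medium. Compounds formulated in non-phytotoxic solvent with surfactant.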

[2] = test system: nightshade (eastern black nightshade, Solanum ptycanthum); assay: Test B pre-/postemergence plant response; conditions: Preemergence
How it was run: as §1

[3] = test system: ragweed (common ragweed, Ambrosia elatior); assay: Test B pre-/postemergence plant response
How it was run: as §1

[4] = test system: sunflower (common oilseed sunflower, Helianthus annuus); assay: Test B pre-/postemergence plant response; conditions: Preemergence
How it was run: as §1

[5] = test system: wheat (Triticum aestivum); assay: Test B pre-/postemergence plant response
How it was run: as §1

[6] = test system: bermudagrass (Cynodon dactylon); assay: Test B pre-/postemergence plant response
How it was run: as §1

[7] = test system: pigweed (Amaranthus retroflexus); assay: Test B pre-/postemergence plant response
How it was run: as §1

[8] = test system: Italian ryegrass (Lolium multiflorum); assay: Test B pre-/postemergence plant response
How it was run: as §1

[9] = test system: galium (catchweed bedstraw, Galium aparine); assay: Test B pre-/postemergence plant response; conditions: Preemergence
How it was run: as §1

[10] = test system: goosegrass (Eleusine indica); assay: Test B pre-/postemergence plant response; conditions: Preemergence, 62 g ai/ha; scale 0 to 100, 0 no effect, 100 complete control
[11] = test system: canarygrass (Phalaris minor); assay: Test B postemergence plant response; conditions: Postemergence
How it was run: (§2)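 Plants at the 1- to 4-leaf stage (2 to 18 cm tall), grown in pots of peat moss/vermiculite medium with wetting agent and starter nutrients, received postemergence applications of test chemicals. After 13 to 15 days in a greenhouse, injury was rated visually against untreated controls on a 0 (no effect) to 100 (complete control) scale.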

[12] = test system: chickweed (Stellaria media); assay: Test B postemergence plant response; conditions: Postemergence
How it was run: as §2

[13] = test system: windgrass (Apera spica-venti); assay: Test B postemergence plant response; conditions: Postemergence
How it was run: as §2

[14] = test system: winter barley (Hordeum vulgare); assay: Test B postemergence plant response; conditions: Postemergence
How it was run: as §2

[15] = 250 g ai/ha, Preemergence, 0 to 100 scale
[16] = Postemergence, 31 g ai/ha, scale 0 to 100 (0 no effect, 100 complete control)
[17] = Postemergence, 62 g ai/ha, scale 0 (no effect) to 100 (complete control), 13 to 15 days
[18] = Postemergence, 125 g ai/ha, visual rating after 13 to 15 days, scale 0 (no effect) to 100 (complete control)
[19] = Postemergence, 250 g ai/ha, scale 0 to 100
[20] = Preemergence, 31 g ai/ha, scale 0 to 100 (0 no effect, 100 complete control)
[21] = Preemergence, 62 g ai/ha, scale 0 to 100, 0 no effect, 100 complete control
[22] = Preemergence, 125 g ai/ha, 0 to 100 scale
[23] = 31 g ai/ha, scale 0 to 100 (0 no effect, 100 complete control)
[24] = 62 g ai/ha, scale 0 to 100, 0 no effect, 100 complete control
[25] = 62 g ai/ha, scale 0 (no effect) to 100 (complete control), 13 to 15 days
[26] = 125 g ai/ha, visual rating after 13 to 15 days, scale 0 (no effect) to 100 (complete control)
[27] = Postemergence, 31 g ai/ha, 0 to 100 scale (0 no effect, 100 complete control)
[28] = Postemergence, 125 g ai/ha, scale 0 (no effect) to 100 (complete control), 13 to 15 days
[29] = Postemergence, 250 g ai/ha, scale 0 to 100 (0 no effect, 100 complete control), 13 to 15 days
[30] = Postemergence, 62 g ai/ha, scale 0 to 100 (0 no effect, 100 complete control)
[31] = Preemergence, 125 g ai/ha, scale 0 to 100, 0 no effect, 100 complete control
[32] = Preemergence, 250 g ai/ha, 0 to 100 scale
[33] = 125 g ai/ha, scale 0 to 100, 0 no effect, 100 complete control
[34] = 31 g ai/ha, 0 to 100 scale (0 no effect, 100 complete control)
[35] = 125 g ai/ha, scale 0 (no effect) to 100 (complete control), 13 to 15 days
[36] = 250 g ai/ha, scale 0 to 100 (0 no effect, 100 complete control), 13 to 15 days
[37] = 62 g ai/ha, scale 0 to 100 (0 no effect, 100 complete control)

Compound: 2-(3,5-difluorophenyl)-5-[(2-hydroxy-4-oxobicyclo[3.2.1]oct-2-en-3-yl)carbonyl]-3-(2-methoxyethyl)-4(3H)-pyrimidinone [Compound 243]
- Plant response rating, Lambsquarters [1, 15]: 100
- Plant response rating, Lambsquarters [1, 16]: 75
- Plant response rating, Lambsquarters [1, 17]: 80
- Plant response rating, Lambsquarters [1, 18]: 80
- Lambsquarters plant response rating [1, 19]: 95
- Plant response rating, Lambsquarters [1, 20]: 100
- Plant response rating, Lambsquarters [1, 21]: 100
- Lambsquarters plant response rating [1, 22]: 100
- Plant response rating, Nightshade ([2]; 250 g ai/ha, 0 to 100 scale): 100
- Plant response rating, Nightshade [2, 23]: 100
- Plant response rating, Nightshade [2, 24]: 100
- Nightshade plant response rating ([2]; 125 g ai/ha, 0 to 100 scale): 100
- Plant response rating, Ragweed [3, 15]: 100
- Plant response rating, Ragweed [3, 16]: 70
- Plant response rating, Ragweed [3, 17]: 75
- Plant response rating, Ragweed [3, 18]: 75
- Ragweed plant response rating [3, 19]: 100
- Plant response rating, Ragweed [3, 20]: 55
- Plant response rating, Ragweed [3, 21]: 90
- Ragweed plant response rating [3, 22]: 100
- Plant response rating, Sunflower ([4]; 250 g ai/ha, 0 to 100 scale): 98
- Plant response rating, Sunflower [4, 23]: 45
- Plant response rating, Sunflower [4, 24]: 85
- Sunflower plant response rating ([4]; 125 g ai/ha, 0 to 100 scale): 95
- Plant response rating, Wheat [5, 15]: 5
- Plant response rating, Wheat [5, 16]: 0
- Plant response rating, Wheat [5, 17]: 5
- Plant response rating, Wheat [5, 18]: 30
- Wheat plant response rating [5, 19]: 30
- Plant response rating, Wheat [5, 20]: 0
- Plant response rating, Wheat [5, 21]: 0
- Wheat plant response rating [5, 22]: 0
- Plant response rating, Bermudagrass [6, 15]: 100
- Plant response rating, Bermudagrass [6, 16]: 90
- Plant response rating, Bermudagrass [6, 17]: 95
- Plant response rating, Bermudagrass ([6]; Postemergence, 125 g ai/ha, scale 0 to 100 (0 no effect, 100 complete control), 13 to 15 days): 98
- Bermudagrass plant response rating [6, 19]: 98
- Plant response rating, Bermudagrass [6, 20]: 98
- Plant response rating, Bermudagrass [6, 21]: 100
- Bermudagrass plant response rating [6, 22]: 100
- Plant response rating, Pigweed [7, 15]: 100
- Plant response rating, Pigweed [7, 16]: 80
- Plant response rating, Pigweed [7, 17]: 85
- Plant response rating, Pigweed [7, 18]: 100
- Pigweed plant response rating [7, 19]: 100
- Plant response rating, Pigweed [7, 20]: 50
- Plant response rating, Pigweed [7, 21]: 100
- Pigweed plant response rating [7, 22]: 100
- Plant response rating, Ryegrass, Italian [8, 15]: 40
- Plant response rating, Ryegrass, Italian [8, 16]: 0
- Plant response rating, Ryegrass, Italian [8, 17]: 0
- Plant response rating, Ryegrass, Italian [8, 18]: 30
- Ryegrass, Italian plant response rating [8, 19]: 45
- Plant response rating, Ryegrass, Italian [8, 20]: 0
- Plant response rating, Ryegrass, Italian [8, 21]: 0
- Ryegrass, Italian plant response rating [8, 22]: 0
- Plant response rating, Galium ([9]; 250 g ai/ha, 0 to 100 scale): 95
- Plant response rating, Galium [9, 23]: 0
- Plant response rating, Galium [9, 24]: 40
- Galium plant response rating ([9]; 125 g ai/ha, 0 to 100 scale): 60
- Plant response rating, Goosegrass [10]: 98
- Plant response rating, Canarygrass [11, 23]: 5
- Plant response rating, Canarygrass [11, 25]: 25
- Plant response rating, Canarygrass [11, 26]: 50
- Canarygrass plant response rating ([11]; 250 g ai/ha, scale 0 to 100): 60
- Plant response rating, Chickweed [12, 23]: 20
- Plant response rating, Chickweed [12, 25]: 85
- Plant response rating, Chickweed [12, 26]: 95
- Chickweed plant response rating ([12]; 250 g ai/ha, scale 0 to 100): 98
- Plant response rating, Windgrass [13, 23]: 50
- Plant response rating, Windgrass [13, 25]: 55
- Plant response rating, Windgrass [13, 26]: 60
- Windgrass plant response rating ([13]; 250 g ai/ha, scale 0 to 100): 80
- Plant response rating, Barley [14, 23]: 0
- Plant response rating, Barley [14, 25]: 0
- Plant response rating, Barley ([14]; 125 g ai/ha, scale 0 to 100 (0 no effect, 100 complete control), 13 to 15 days): 20
- Barley plant response rating ([14]; 250 g ai/ha, scale 0 to 100): 35

Compound: COCCCn1c(-c2cc(F)cc(F)c2)ncc(C(=O)C2=C(O)C3CCC(C3)C2=O)c1=O (stereo not drawn) [Compound 244]
- Plant response rating, Lambsquarters [1, 27]: 100
- Plant response rating, Lambsquarters [1, 28]: 100
- Plant response rating, Lambsquarters [1, 29]: 100
- Plant response rating, Lambsquarters [1, 30]: 100
- Plant response rating, Lambsquarters [1, 20]: 100
- Plant response rating, Lambsquarters [1, 21]: 100
- Plant response rating, Lambsquarters [1, 31]: 100
- Lambsquarters plant response rating [1, 32]: 100
- Plant response rating, Nightshade [2, 23]: 98
- Plant response rating, Nightshade [2, 24]: 100
- Plant response rating, Nightshade [2, 33]: 100
- Nightshade plant response rating ([2]; 250 g ai/ha, 0 to 100 scale): 100
- Plant response rating, Ragweed [3, 27]: 98
- Plant response rating, Ragweed [3, 28]: 98
- Plant response rating, Ragweed [3, 29]: 100
- Plant response rating, Ragweed [3, 30]: 98
- Plant response rating, Ragweed [3, 20]: 70
- Plant response rating, Ragweed [3, 21]: 95
- Plant response rating, Ragweed [3, 31]: 100
- Ragweed plant response rating [3, 32]: 100
- Plant response rating, Sunflower [4, 23]: 80
- Plant response rating, Sunflower [4, 24]: 80
- Plant response rating, Sunflower [4, 33]: 85
- Sunflower plant response rating ([4]; 250 g ai/ha, 0 to 100 scale): 100
- Plant response rating, Wheat [5, 27]: 60
- Plant response rating, Wheat [5, 28]: 85
- Plant response rating, Wheat [5, 29]: 95
- Plant response rating, Wheat [5, 30]: 80
- Plant response rating, Wheat [5, 20]: 0
- Plant response rating, Wheat [5, 21]: 0
- Plant response rating, Wheat [5, 31]: 5
- Wheat plant response rating [5, 32]: 45
- Plant response rating, Bermudagrass [6, 27]: 80
- Plant response rating, Bermudagrass [6, 28]: 100
- Plant response rating, Bermudagrass [6, 29]: 100
- Plant response rating, Bermudagrass [6, 30]: 100
- Plant response rating, Bermudagrass [6, 20]: 100
- Plant response rating, Bermudagrass [6, 21]: 100
- Plant response rating, Bermudagrass [6, 31]: 100
- Bermudagrass plant response rating ([6]; Preemergence, 250 g ai/ha, 0 to 100 scale, 0 no effect, 100 complete control): 100
- Plant response rating, Pigweed [7, 27]: 95
- Plant response rating, Pigweed [7, 28]: 100
- Plant response rating, Pigweed [7, 29]: 100
- Plant response rating, Pigweed [7, 30]: 100
- Plant response rating, Pigweed [7, 20]: 100
- Plant response rating, Pigweed [7, 21]: 100
- Plant response rating, Pigweed [7, 31]: 100
- Pigweed plant response rating [7, 32]: 100
- Plant response rating, Ryegrass, Italian [8, 27]: 35
- Plant response rating, Ryegrass, Italian [8, 28]: 80
- Plant response rating, Ryegrass, Italian [8, 29]: 95
- Plant response rating, Ryegrass, Italian [8, 30]: 60
- Plant response rating, Ryegrass, Italian [8, 20]: 0
- Plant response rating, Ryegrass, Italian [8, 21]: 0
- Plant response rating, Ryegrass, Italian [8, 31]: 5
- Ryegrass, Italian plant response rating [8, 32]: 45
- Plant response rating, Galium [9, 23]: 55
- Plant response rating, Galium [9, 24]: 65
- Plant response rating, Galium [9, 33]: 98
- Galium plant response rating ([9]; 250 g ai/ha, 0 to 100 scale): 98
- Plant response rating, Canarygrass [11, 34]: 80
- Plant response rating, Canarygrass [11, 35]: 98
- Plant response rating, Canarygrass [11, 36]: 100
- Plant response rating, Canarygrass [11, 37]: 95
- Plant response rating, Chickweed [12, 34]: 80
- Plant response rating, Chickweed [12, 35]: 98
- Plant response rating, Chickweed [12, 36]: 100
- Plant response rating, Chickweed [12, 37]: 95
- Plant response rating, Windgrass [13, 34]: 50
- Plant response rating, Windgrass [13, 35]: 80
- Plant response rating, Windgrass [13, 36]: 95
- Plant response rating, Windgrass [13, 37]: 70
- Plant response rating, Barley [14, 34]: 50
- Plant response rating, Barley [14, 35]: 90
- Plant response rating, Barley [14, 36]: 98
- Plant response rating, Barley [14, 37]: 65

Reference: patent US8952024B2, “Herbicidal pyrimidone derivatives” (E I du Pont de Nemours and Company, priority 2009, dated 2015)
